Test results reported in patent US5559128A, “3-substituted piperidines promote release of growth hormone” (Merck & Co., Inc., priority 1995, dated 1996).

Test: Log P
Details: Log P (min), Table I

| Structure (SMILES) | chromatographic logP |
| --- | --- |
| CC(C)(N)C(=O)N[C@H](Cc1c[nH]c2ccccc12)C(=O)N1CCCC(N(c2ccccc2)S(=O)(=O)c2ccccc2)C1 (single isomer, unassigned) [3b] | 3.2 |
| CC(C)(N)C(=O)N[C@H](Cc1c[nH]c2ccccc12)C(=O)N1CCCC(N(Cc2ccccc2)S(=O)(=O)c2ccccc2)C1 (some centres unmarked) [3a] | 3.6 |
